For 3 molecules, remaining binding results are on record in patent US10870647B2, “Imidazopyridine derivative, method for preparing same, and pharmaceutical composition containing same as active ingredient for preventing or treating cancer” (DAEGU-GYEONGBUK MEDICAL INNOVATION FOUNDATION, priority 2016, dated 2020).

Assay in all cases: Kinase selectivity, scanMAX Kinase assay panel (DiscoverX), % control at 1 uM
Type in all cases: binding

Test [1] has as its target T1, scanMAX Kinase assay panel (Homo sapiens, UniProt O75747).
T1 construct: purchased DiscoverX
T1 sequence (O75747 1-1486): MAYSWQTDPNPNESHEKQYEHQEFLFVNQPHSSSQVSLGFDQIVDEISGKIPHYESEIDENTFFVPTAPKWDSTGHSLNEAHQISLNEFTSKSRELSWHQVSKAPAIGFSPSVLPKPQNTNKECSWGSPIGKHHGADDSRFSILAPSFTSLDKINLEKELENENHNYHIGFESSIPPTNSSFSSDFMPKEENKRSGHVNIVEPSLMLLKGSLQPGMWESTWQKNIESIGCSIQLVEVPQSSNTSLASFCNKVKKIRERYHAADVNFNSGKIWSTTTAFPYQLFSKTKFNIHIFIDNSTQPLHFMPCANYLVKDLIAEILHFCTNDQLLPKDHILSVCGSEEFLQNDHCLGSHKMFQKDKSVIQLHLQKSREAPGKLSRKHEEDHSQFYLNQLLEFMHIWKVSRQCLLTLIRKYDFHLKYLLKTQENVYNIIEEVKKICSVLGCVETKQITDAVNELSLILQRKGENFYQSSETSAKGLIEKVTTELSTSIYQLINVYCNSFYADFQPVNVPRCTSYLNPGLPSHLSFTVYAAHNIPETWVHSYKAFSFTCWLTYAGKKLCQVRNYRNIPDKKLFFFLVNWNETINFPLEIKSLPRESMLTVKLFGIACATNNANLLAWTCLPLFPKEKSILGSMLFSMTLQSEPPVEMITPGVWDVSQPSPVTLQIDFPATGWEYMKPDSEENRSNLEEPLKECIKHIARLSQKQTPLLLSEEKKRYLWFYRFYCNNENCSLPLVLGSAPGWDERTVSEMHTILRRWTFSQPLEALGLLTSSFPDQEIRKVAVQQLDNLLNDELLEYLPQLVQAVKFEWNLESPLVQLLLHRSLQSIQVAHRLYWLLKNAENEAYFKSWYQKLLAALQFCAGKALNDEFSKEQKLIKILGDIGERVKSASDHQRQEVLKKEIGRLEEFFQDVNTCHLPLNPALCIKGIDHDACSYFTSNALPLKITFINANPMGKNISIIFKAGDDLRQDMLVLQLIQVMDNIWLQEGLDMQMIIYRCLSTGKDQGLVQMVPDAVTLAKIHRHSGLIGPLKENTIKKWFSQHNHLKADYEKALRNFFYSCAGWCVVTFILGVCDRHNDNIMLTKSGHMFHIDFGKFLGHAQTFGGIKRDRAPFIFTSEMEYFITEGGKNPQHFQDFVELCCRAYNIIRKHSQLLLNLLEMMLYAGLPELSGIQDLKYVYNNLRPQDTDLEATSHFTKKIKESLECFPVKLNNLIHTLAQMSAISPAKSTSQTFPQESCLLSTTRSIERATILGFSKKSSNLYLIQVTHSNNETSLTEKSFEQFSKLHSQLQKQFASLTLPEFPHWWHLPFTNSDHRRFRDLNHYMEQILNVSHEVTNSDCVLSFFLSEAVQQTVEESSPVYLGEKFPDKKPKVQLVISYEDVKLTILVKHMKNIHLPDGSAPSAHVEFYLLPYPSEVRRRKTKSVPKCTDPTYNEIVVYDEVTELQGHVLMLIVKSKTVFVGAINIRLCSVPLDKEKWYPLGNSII
The following applies: PIK3C2G; 1 uM; read-out: Percent Control (%). The method, boiled down: (§1)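 A single concentration of 1 uM, in DMSO, is applied across the kinase panel. Activity against an individual enzyme is assigned where % control is less than 35.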

Test [2] deals with T2, scanMAX Kinase assay panel (Homo sapiens, UniProt P45985).
T2 construct: purchased DiscoverX
T2 sequence (P45985 1-399): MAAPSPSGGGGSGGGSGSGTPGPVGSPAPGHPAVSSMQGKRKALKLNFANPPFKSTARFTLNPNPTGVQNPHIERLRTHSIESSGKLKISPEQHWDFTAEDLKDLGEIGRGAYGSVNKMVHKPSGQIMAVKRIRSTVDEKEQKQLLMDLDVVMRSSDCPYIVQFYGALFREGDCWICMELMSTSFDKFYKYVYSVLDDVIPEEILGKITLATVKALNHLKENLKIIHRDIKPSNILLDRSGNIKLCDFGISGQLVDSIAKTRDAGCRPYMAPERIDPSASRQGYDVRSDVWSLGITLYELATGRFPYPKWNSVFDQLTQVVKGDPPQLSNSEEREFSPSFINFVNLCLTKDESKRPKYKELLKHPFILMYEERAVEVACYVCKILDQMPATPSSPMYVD
The settings on record: MEK4; 1 uM; read-out: Percent Control (%). In outline: as §1

Test [3] has as its target T3, scanMAX Kinase assay panel (Homo sapiens, UniProt P35626).
T3 construct: purchased DiscoverX
T3 sequence (P35626 1-688): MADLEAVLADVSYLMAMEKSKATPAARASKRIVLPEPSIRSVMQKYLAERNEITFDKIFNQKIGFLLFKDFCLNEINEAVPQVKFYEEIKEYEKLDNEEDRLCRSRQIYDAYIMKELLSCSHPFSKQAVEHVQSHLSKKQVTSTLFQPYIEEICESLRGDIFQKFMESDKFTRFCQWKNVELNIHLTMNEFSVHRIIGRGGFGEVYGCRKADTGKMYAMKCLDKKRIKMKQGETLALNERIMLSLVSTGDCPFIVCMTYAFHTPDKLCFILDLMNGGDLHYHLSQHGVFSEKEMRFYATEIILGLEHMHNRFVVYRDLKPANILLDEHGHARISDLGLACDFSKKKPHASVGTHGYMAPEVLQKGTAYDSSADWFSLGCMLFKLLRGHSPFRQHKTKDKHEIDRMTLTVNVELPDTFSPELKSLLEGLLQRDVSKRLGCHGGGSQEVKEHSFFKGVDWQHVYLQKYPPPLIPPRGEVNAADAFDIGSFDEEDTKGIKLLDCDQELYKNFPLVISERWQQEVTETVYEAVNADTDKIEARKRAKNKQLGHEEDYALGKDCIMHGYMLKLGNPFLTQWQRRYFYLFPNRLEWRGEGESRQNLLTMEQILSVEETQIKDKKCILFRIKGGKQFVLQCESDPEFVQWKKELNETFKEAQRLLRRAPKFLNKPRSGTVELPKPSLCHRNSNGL
The settings on record: GRK3; 1 uM; read-out: Percent Control (%). The method, boiled down: as §1

For `Cc1ccc(C(=O)Nc2ccc(CN3CCN(C)CC3)c(C(F)(F)F)c2)cc1C#Cc1cnc2c(Nc3cnn(C)c3)cccn12` [Example 1, 4-methyl-3-((8-((1-methyl-1H-pyrazol-4-yl)amino)imidazo[1,2-a]pyridin-3-yl)ethynyl)-N-(4-((4-methylpiperazin-1-yl)methyl)-3-(trifluoromethyl)phenyl)benzamide], the values for the remaining binding at 1 µM in test [1], in test [2] and in test [3] were 75%, 98% and 82%, respectively.
For `Cc1cn(-c2cc(NC(=O)c3ccc(C)c(C#Cc4cnc5c(Nc6cnn(C)c6)cccn45)c3)cc(C(F)(F)F)c2)cn1` [Example 12, 4-methyl-N-(3-(4-methyl-1H-imidazol-1-yl)-5-(trifluoromethyl)phenyl)-3-((8-((1-methyl-1H-pyrazol-4-yl)amino)imidazo[1,2-a]pyridin-3-yl)ethynyl)benzamide], in that order: 100%, 100% and 100%.
On to `Cc1ccc(NC(=O)C2(C(=O)Nc3ccc(F)cc3)CC2)cc1C#Cc1cnc2c(Nc3cnn(C(C)C)c3)cccn12` [Example 78], for which the results for the remaining binding at 1 µM in test [1], in test [2] and in test [3] were 100%, 97% and 97%, respectively.
